Data taken from patent US11413278B2, “Compounds and methods for promoting stress resistance” (priority 2015, dated 2022).
Entries after “also recorded” stand apart in the source; their conditions may differ. Where two headings read alike, the source gives them in different places.

Columns and labels:
[1] = system: human protein targets; settings: PubChem database queries; cited from earlier work
[2] = system: PC12 cells expressing poly(Q)103-Htt-EGFP; experiment: Poly(Q) toxicity & viability analysis (cellular model of Huntington's disease); format: cell-based, rat; settings: for M = Huntington's poly-Q toxicity attenuation: score; for K = Huntington's poly-Q toxicity attenuation: summary score
In short: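 PC12 cells stably carrying inducible poly(Q)103-Htt-EGFP, whose induced expression causes aggregation and toxicity. Viability read 48 hrs later as ATP content by CellTiter-Glo.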

[3] = system: WI-38 cells; settings: for PI cell-death imaging without H2O2 (indicating potential toxicity): Assay 8(k), without H2O2, at 10 uM; for PI-positive dead cells under normal conditions: control 0.4±0.2%; for Percentage of propidium iodide-positive dead cells (no H2O2 stress treatment), at 10 uM: negative control 0.41% ± 0.23%
Description: WI-38 cells were seeded on 384-well plates for 24 hrs and then incubated with small molecules for 24 hrs. […] Images were collected on an INCell Analyzer 2000 (GE) and analyzed with the Developer software.

[4] = molecular target: T1, human PARP1 (Homo sapiens, UniProt P09874); experiment: PARP inhibitor assay (HT Fluorescent Homogeneous PARP Inhibition Assay Kit); format: biochemical; settings: score
T1 construct: purchased Trevigen
In short: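 Human PARP1 with NAD and activated DNA, compounds at 10 μM final, 30 min at room temperature in dark. Resazurin/diaphorase cycling mix then added for 1 hr in dark before stop buffer; fluorescent homogeneous kit read-out.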

[5] = system: FOXO3; experiment: qPCR analysis of FOXO3-regulated genes; format: cell-based, human; settings: for fold induction at 10 µM: Homo sapiens; for K = Sestrin induction: score; for Potential FOXO3 Activation (>=2 target genes induced, by >=1.5-fold): Assay 11(n)
In short: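 WI-38 cells treated with compound at 10 μM for 24 h, followed by Cells-to-Ct RT-qPCR of FOXO3 target genes normalised to B2M, PPIA and GAPDH. FOXO3 or NRF2 dependence tested by prior 10 nM siRNA knockdown (36 h transfection, compound added ~24 h after replating).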

[6] = in vitro; format: cell-based, human; settings: human
[7] = system: HTB-178 lung tumor cells (EGFR+, PIK3CA+, RB1−, TP53−); experiment: Killing effects on HTB-178 tumor cells; format: cell-based, human; settings: Assay 1(y); at 10 uM, 1st
[8] = 24 h, Assay 10(m), at 10 uM, qPCR, read-out: Induction of FOXO3-regulated genes: DDB1 normalized fold-change
[9] = 24 h, Assay 10(m), at 10 uM, qPCR, read-out: Induction of FOXO3-regulated genes: GADD45A normalized fold-change
[10] = 10 μM, 24 hrs, WI-38 cells, qPCR, normalized to B2M, n = 4, read-out: CAT expression, normalized fold change (FOXO3-regulated gene)
[11] = WI-38 cells, 10 μM, 24 hrs, n=4, qPCR normalized by B2M, read-out: DDB1 Normalized fold change
[12] = WI-38 cells, 10 μM, 24 hrs, n=4, qPCR normalized by B2M, read-out: GADD45A Normalized fold change
[13] = WI-38 cells, 10 μM, 24 hrs, n=4, qPCR normalized by B2M, read-out: SESN1 Normalized fold change
[14] = fold change, qPCR, WI-38 cells, 10 μM, 24 hrs, read-out: Summary of effects on FOXO3-regulated genes: CAT
[15] = qPCR, WI-38 cells, 10 μM, n=4, 24 hrs, normalized by B2M, read-out: CAT Normalized fold change
[16] = qPCR, WI-38 cells, 10 μM, n=4, 24 hrs, normalized by B2M, read-out: SOD2 Normalized fold change
[17] = qPCR, WI-38 cells, 10 μM, n=4, 24 hrs, normalized by B2M, read-out: TXNIP Normalized fold change
[18] = 10 μM, 24 hrs, WI-38 cells, qPCR, normalized to B2M, n = 4
[19] = 24 h, Assay 10(m), at 10 uM, qPCR, read-out: Induction of FOXO3-regulated genes: SOD2 normalized fold-change
[20] = 24 h, Assay 10(m), at 10 uM, qPCR, read-out: Induction of FOXO3-regulated genes: TXNIP normalized fold-change
[21] = 10 μM, 24 hrs, WI-38 cells, qPCR, normalized to B2M, n = 4, read-out: GADD45A expression, normalized fold change (FOXO3-regulated gene)
[22] = 10 μM, 24 hrs, WI-38 cells, qPCR, normalized to B2M, n = 4, read-out: TXNIP expression, normalized fold change (FOXO3-regulated gene)
[23] = fold change, qPCR, WI-38 cells, 10 μM, 24 hrs, read-out: Summary of effects on FOXO3-regulated genes: GADD45A
[24] = fold change, qPCR, WI-38 cells, 10 μM, 24 hrs, read-out: Summary of effects on FOXO3-regulated genes: TXNIP
[25] = fold change, qPCR, WI-38 cells, 10 μM, 24 hrs

T1 sequence (P09874 whole entry): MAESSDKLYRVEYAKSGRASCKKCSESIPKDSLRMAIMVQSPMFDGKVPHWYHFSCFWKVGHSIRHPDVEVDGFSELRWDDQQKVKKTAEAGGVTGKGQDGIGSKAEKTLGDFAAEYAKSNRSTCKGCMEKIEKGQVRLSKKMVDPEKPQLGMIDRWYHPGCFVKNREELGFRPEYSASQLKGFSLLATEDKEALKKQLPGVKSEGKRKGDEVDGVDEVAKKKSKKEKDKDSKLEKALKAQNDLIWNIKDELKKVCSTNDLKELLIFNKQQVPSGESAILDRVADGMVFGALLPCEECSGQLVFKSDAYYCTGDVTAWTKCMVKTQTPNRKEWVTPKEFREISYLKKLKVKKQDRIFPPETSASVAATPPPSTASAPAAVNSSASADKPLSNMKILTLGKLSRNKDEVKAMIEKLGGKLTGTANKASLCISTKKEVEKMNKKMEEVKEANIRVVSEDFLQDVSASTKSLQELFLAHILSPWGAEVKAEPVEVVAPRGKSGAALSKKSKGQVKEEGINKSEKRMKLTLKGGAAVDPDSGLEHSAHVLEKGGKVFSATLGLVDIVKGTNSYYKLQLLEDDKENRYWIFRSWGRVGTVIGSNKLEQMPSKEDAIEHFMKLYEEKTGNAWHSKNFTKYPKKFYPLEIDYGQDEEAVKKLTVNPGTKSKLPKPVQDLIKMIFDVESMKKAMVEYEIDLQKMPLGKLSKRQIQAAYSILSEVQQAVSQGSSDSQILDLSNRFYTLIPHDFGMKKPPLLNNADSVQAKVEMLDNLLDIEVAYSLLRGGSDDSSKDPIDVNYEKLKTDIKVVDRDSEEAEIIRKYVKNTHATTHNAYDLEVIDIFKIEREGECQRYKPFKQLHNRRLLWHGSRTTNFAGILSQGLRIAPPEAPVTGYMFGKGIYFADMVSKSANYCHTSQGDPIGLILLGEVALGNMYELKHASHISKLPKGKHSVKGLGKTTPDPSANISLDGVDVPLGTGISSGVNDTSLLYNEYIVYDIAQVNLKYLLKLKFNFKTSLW

| Compound | Potential targets: human protein targets (confirmed) [1] | M = Huntington's poly-Q toxicity attenuation [2] | K = Huntington's poly-Q toxicity attenuation [2] | PI cell-death imaging without H2O2 (indicating potential toxicity) [3] | PI-positive dead cells under normal conditions ([3]; WI-38, no H2O2) | Percentage of propidium iodide-positive dead cells (no H2O2 stress treatment), at 10 uM [3] | L = PARP inhibition [4] | E = Potential FOXO3 Activation ([5]; 2-point score) | fold induction at 10 µM [5, 8] | fold induction at 10 µM [5, 9] | fold induction at 10 µM [5, 10] | fold induction at 10 µM [5, 11] | fold induction at 10 µM [5, 12] | fold induction at 10 µM [5, 13] | fold induction at 10 µM [5, 15] | fold induction at 10 µM [5, 16] | fold induction at 10 µM [5, 17] | K = Sestrin induction [5] | E = Potential FOXO3 Activation ([5]; summary score) | cytotoxicity at 24 h, 10 uM [6] [%] | also measured |
| --- | --- | --- | --- | --- | --- | --- | --- | --- | --- | --- | --- | --- | --- | --- | --- | --- | --- | --- | --- | --- | --- |
| Cc1ccc(NC(=O)c2ccc([N+](=O)[O-])o2)cc1C [Gr-1F] | CASP3, CFTR, GMNN, IDH1, IL1B, JAK2, SENP6, SENP7, SENP8, STAT1, and TDP1 | 0 | 0 | YES | 3.3±0.8% | 3.27% ± 0.82%, | 0 | 0 | 1.12 | 0.8 | 1.35 | 1.37 | 1.02 | 2 | 1.35 | 1.68 | 1.54 | 1 | 0 | 50 | Percentage of propidium iodide-positive (dead) cells under normal conditions (qualitative) ([3]; WI-38, no H2O2): increased the percentage; fold induction at 10 µM ([5]; 24 h, Assay 10(m), at 10 uM, qPCR, read-out: Induction of FOXO3-regulated genes: SESN1 normalized fold-change): 1.64; fold induction at 10 µM ([5]; WI-38, 24 h, read-out: SESN1 expression): > 1.5; fold induction at 10 µM ([5]; 10 μM, 24 hrs, WI-38 cells, qPCR, normalized to B2M, n = 4, read-out: SESN1 expression, normalized fold change (FOXO3-regulated gene)): 2; fold induction at 10 µM [5, 14]: 1.35; fold induction at 10 µM ([5]; fold change, qPCR, WI-38 cells, 10 μM, 24 hrs, read-out: Summary of effects on FOXO3-regulated genes: SESN1): 2 |
| O=C(NCc1cccnc1)/C(=C/c1ccc(-c2ccc(Cl)cc2)o1)S(=O)(=O)c1ccccc1 [Gr-7C] | ABHD5, ADRB2, ATXN2, BARD1, BRCA1, CFTR, CHRM4, CYP2C19,; also recorded: EPAS1, GMNN, GPR183, HIF1A, HNF4A, IDH1, IL1B, KCNJ1, MDM2,; also recorded: MDM4, MITF, NCOA1, NCOA2, NCOA3, NFE2L2, NOD1, NOD2, NOD2,; also recorded: NPBWR1, NPSR1, NPY1R, NPY2R, NR2E3, NR2F2, NR5A1, NR5A2, PLIN5,; also recorded: RIPK2, S1PR1, S1PR2, TDP1, TNF, VDR | 1 | 1 |  |  |  | 0 | 2 | 1.36 | 10.9 | 1.43 | 1.36 | 10.9 | 1.28 | 1.43 | 2.68 | 0.068 | 0 | 2 | 60 | Viability of PC12 cells upon induction of toxic poly(Q)103-Htt-EGFP aggregates ([2]; 2.5 μM, 5 μM, 10 μM and 20 μM): consistently increased the viability; Assay 20: Huntington's poly-Q toxicity attenuation ([2]; 10 uM, YES/NO): YES; SOD2 expression, normalized fold change (FOXO3-regulated gene) [5, 18]: SOD2 2.67, fold; Potential FOXO3 Activation (>=2 target genes induced, by >=1.5-fold) [5]: YES; fold induction at 10 µM ([5]; 24 h, Assay 10(m), at 10 uM, qPCR, read-out: Induction of FOXO3-regulated genes: CAT normalized fold-change): 1.43; fold induction at 10 µM [5, 19]: 2.67; fold induction at 10 µM [5, 20]: 0.07; fold induction at 10 µM ([5]; 10 μM, 24 hrs, WI-38 cells, qPCR, normalized to B2M, n = 4, read-out: DDB1 expression, normalized fold change (FOXO3-regulated gene)): 1.36; fold induction at 10 µM [5, 21]: 10.9; fold induction at 10 µM [5, 22]: 0.07; fold induction at 10 µM [5, 14]: 1.43; fold induction at 10 µM ([5]; fold change, qPCR, WI-38 cells, 10 μM, 24 hrs, read-out: Summary of effects on FOXO3-regulated genes: DDB1): 1.36; fold induction at 10 µM [5, 23]: 10.9; fold induction at 10 µM [5, 24]: 0.07; Summary of effects on FOXO3-regulated genes: SOD2 [5, 25]: SOD2 2.67, |
| COc1cccc(/C=C2\CN(C)C/C(=C\c3cccc(OC)c3OC)C2=O)c1OC [O23] |  | 0 | 0 | YES | 2.6%±1.4% | 2.61% ± 1.37%, | 0 | 2 |  | 7.22 |  | 1.26 | 7.22 | 0.799 | 0.89 | 2.04 | 0.071 | 0 | 2 | 40 | Potential killing effects on HTB-178 tumor cells, 1st [7]: YES;; Induction of at least two of five FOXO3-regulated genes (SOD2, GADD45A, CAT, DDB1, TXNIP) ([5]; 10 μM, 24 hrs, WI-38): induce FOXO3-regulated genes; SOD2 expression, normalized fold change (FOXO3-regulated gene) [5, 18]: SOD2 2.04 fold; Potential FOXO3 Activation (>=2 target genes induced, by >=1.5-fold) [5]: YES; fold induction at 10 µM [5, 19]: 2.04; fold induction at 10 µM [5, 20]: 0.07; fold induction at 10 µM [5, 21]: 7.22; fold induction at 10 µM [5, 22]: 0.07; fold induction at 10 µM [5, 23]: 7.22; fold induction at 10 µM [5, 24]: 0.07; Summary of effects on FOXO3-regulated genes: SOD2 [5, 25]: SOD2 2.04 |
